Experimental data: patent US20120016019A1, “PHARMACEUTICAL COMPOSITION FOR TREATING OR PREVENTING CANCER” (priority 2010, published 2012)
Values joined by “and” are separate entries in the source; they are usually repeats but may differ in a detail not shown here. Equal entries are not always repeated. Where two headings read alike, the source gives them in different places.

Experiments:
BJ = conditions: for The viability / The absorbance, group - Blank / The absorbance, Mean value / The absorbance: BJ; for The absorbance, group - Blank: mean minus blank; for The absorbance: single value; for The cytotoxicity: human, 220 nM
Description: Cancer cell lines HCC 1419, MCF-7, MDA-MB-468, SKBR3, PC3, HT1299, Saos-2, C-6, AsPc, MDA-MB-231, RKO, HeLa and TT, and normal cell lines HME 50 HT, BJ and CCD-1074sk were tested for changes in metabolism (XTT assay) and cell death (cell counts).
(§1) Cells were plated into 48-well Corning CellBind™ plates at densities of 20,000 cells for normal cells and 10,000˜20,000 cells for cancer cells. 24 to 48 h after plating, cells were treated with the composition according to the invention at concentrations of 4.5e-2M. The first time point treated with the composition of the invention is 0 h. At 3 days after the first treatment with the composition of the invention, medium was changed and the composition of the invention at the same concentrations were added to the cultured cells.
The XTT assay is an accepted analysis technique for viability and cytotoxicity of anticancer drugs or other pharmaceutical compositions. Cells were seeded in a 96-well tissue culture plate at a density of 10,000 cells for normal cells and 5,000 cells for cancer cells. After incubation period, the formazan dye formed was quantitated using an ELISA reader. The optimal wavelength used in experiments was 500 nm, and it was measured at 0 h, 12 h, 24 h, 48 h, 4 d and 7 d, respectively. The obtained values were generated using the software SoftMax Pro 4.8.
The cell viability was calculated according to the manufacturer's instructions as follows (the term “blank” means XTT in medium only):
Cellular cytotoxicity was calculated according to the manufacturer's instructions as follows: […]

HCC 1419 = experiment: Cell counts, HCC 1419; type: cell-based; conditions: for cell counts: single wells
Description: Cells were plated into 48-well Corning CellBind™ plates at densities of 20,000 cells for normal cells and 10,000˜20,000 cells for cancer cells. […] The first time point treated with the composition of the invention is 0 h.
(§4) Cells were harvested using Trypsin-EDTA at the designated time points. […] Two 48-well plates were used per cell line, and they were measured at 0 h, 12 h, 24 h, 48 h, 4 d and 7 d, respectively.
(§5) In the 1st plate, cells were treated with the composition according to the invention and medium was changed at 0 h and 3 d. […] As a result, LC-50 curves were generated in the 1st week.
(§6) In the 2nd plate, 7 d of the 1st week (LC-50) is the same as 0 h of the 2nd week (recovery).
(§7) At 0 h of the 2nd week, medium was exchanged with untreated medium for the remainder of the experiment. The untreated controls were not measured in the 2nd week (recovery) due to overconfluence by the end of the 1st week. As a result, Recovery curves were generated in the 2nd week.

AsPc = experiment: Cell counts, AsPc; type: cell-based
Description: as §4, §5, §6
At 0 h of the 2nd week, medium was exchanged with untreated medium for the remainder of the experiment. […] As a result, Recovery curves were generated in the 2nd week.

SKBR3 [1] = experiment: Cell counts, SKBR3; type: cell-based; conditions: for cell counts: single wells
Description: as §4, §5, §6, §7

HeLa = conditions: human, 0 h, 220 nM
Description: as §1
(§2) Cells were harvested using Trypsin-EDTA at the designated time points. When total cells for each well were counted with a Beckman-Coulter Z1 Particle Characterization Unit, the vertical axis represents 1/20 of cell number in the Figures attached to the specification, while when counted with a Beckman-Coulter Vi-Cell, the vertical axis represents cell number in the Figures. Two 48-well plates were used per cell line, and they were measured at 0 h, 12 h, 24 h, 48 h, 4 d and 7 d, respectively.
(§3) The viability was determined by using the trypan blue staining in the well of cell counting.

SKBR3 [2] = conditions: human, 220 nM
Description: as §1, §2, §3

MDA-MB-231 = conditions: human, 0 h, 220 nM
Description: as §1, §2, §3

RKO = conditions: human, 220 nM
Description: as §1, §2, §3

## CC(=O)O[C@H]1C(=O)[C@@]2(C)[C@H]([C@H](OC(=O)c3ccccc3)[C@]3(O)C[C@H](OC(=O)[C@H](O)[C@@H](NC(=O)c4ccccc4)c4ccccc4)C(C)=C1C3(C)C)[C@]1(OC(C)=O)CO[C@@H]1C[C@@H]2O [Taxol]
BJ; 1st week (LC50), 0 h
  The viability: 0.6817
  The absorbance, group - Blank: 0.9194
  The absorbance, Mean value: 1.2407
  The absorbance: 1.2557 and 1.2397 and 1.2268
BJ; 1st week (LC50), 12 h
  The viability: 0.3531
  The absorbance, group - Blank: 0.1792
  The absorbance, Mean value: 0.5006
  The absorbance: 0.504 and 0.4951 and 0.5027
BJ; 1st week (LC50), 24 h
  The viability: 0.1484
  The absorbance, group - Blank: 0.1674
  The absorbance, Mean value: 0.4887
  The absorbance: 0.492 and 0.4863 and 0.4879
BJ; 1st week (LC50), 48 h
  The viability: 0.6457
  The absorbance, group - Blank: 1.3032
  The absorbance, Mean value: 1.6245
  The absorbance: 1.6877 and 1.5017 and 1.6842
BJ; 1st week (LC50), 4 d
  The viability: 0.5117
  The absorbance, group - Blank: 1.1564
  The absorbance, Mean value: 1.4777
  The absorbance: 1.4687 and 1.4879 and 1.4766
BJ; 1st week (LC50), 7 d
  The viability: 0.4809
  The absorbance, group - Blank: 1.0576
  The absorbance, Mean value: 1.3790
  The absorbance: 1.3256 and 1.3677 and 1.4436
BJ; 2nd week (recovery), 0 h
  The viability: 0.8858
  The absorbance, group - Blank: 0.8852
  The absorbance, Mean value: 1.2065
  The absorbance: 1.1468 and 1.2843 and 1.1885
BJ; 2nd week (recovery), 24 h
  The viability: 2.1460
  The absorbance, group - Blank: 1.0893
  The absorbance, Mean value: 1.4107
  The absorbance: 1.3211 and 1.5144 and 1.3966
BJ; 2nd week (recovery), 48 h
  The viability: 0.1254
  The absorbance, group - Blank: 0.1415
  The absorbance, Mean value: 0.4629
  The absorbance: 0.451 and 0.4672 and 0.4704
BJ; 2nd week (recovery), 4 d
  The viability: 0.7693
  The absorbance, group - Blank: 1.5524
  The absorbance, Mean value: 1.8738
  The absorbance: 1.8912 and 1.9201 and 1.8101
BJ; 12 h
  The cytotoxicity: 0.6469
BJ; 7 d
  The cytotoxicity: 0.5191
HCC 1419
  growth pattern of the cells in the well (microscopy): growing in a diffuse, spreading pattern over the whole well
HCC 1419; 1st week (LC50) and 2nd week (recovery)
  number of cancer cells (course): did not decreased any more and was maintained
HCC 1419; 1st week (LC50), 0 h
  cell counts, Mean value: 3156
  cell counts: 3055 and 2626 and 3788
HCC 1419; 1st week (LC50), 12 h
  cell counts, Mean value: 3479
  cell counts: 3434 and 3451 and 3553
HCC 1419; 1st week (LC50), 24 h
  cell counts, Mean value: 3036
  cell counts: 2957 and 3488 and 2664
HCC 1419; 1st week (LC50), 48 h
  cell counts, Mean value: 2978
  cell counts: 2232 and 3502 and 3199
HCC 1419; 1st week (LC50), 4 d
  cell counts, Mean value: 2544
  cell counts: 1716 and 2940 and 2975
HCC 1419; 1st week (LC50), 7 d
  cell counts, Mean value: 1741
  cell counts: 1718 and 1710 and 1794
HCC 1419; 2nd week (recovery), 0 h
  cell counts, Mean value: 8878
  cell counts: 8472 and 8522 and 9639
HCC 1419; 2nd week (recovery), 24 h
  cell counts: 7966
HCC 1419; 2nd week (recovery), 48 h
  cell counts: 4901
HCC 1419; 2nd week (recovery), 7 d
  cell counts: 7316 and 3792
AsPc
  process of cell death (microscopy): cell membranes were ruptured by toxicity of Taxol, and then nuclei of cells changed into black
AsPc; 1st week (LC50), 0 h
  cell counts: 2340 and 2039 and 2111
  cell counts, Mean value: 2163
AsPc; 1st week (LC50), 12 h
  cell counts: 2833 and 2279 and 2550
  cell counts, Mean value: 2554
AsPc; 1st week (LC50), 24 h
  cell counts: 2336 and 2161 and 2310
  cell counts, Mean value: 2269
AsPc; 1st week (LC50), 48 h
  cell counts: 2810 and 2130 and 1800
AsPc; 1st week (LC50), 4 d
  cell counts: 2007 and 2100
  cell counts, Mean value: 2042
AsPc; 1st week (LC50), 7 d
  cell counts: 2174 and 1902
  cell counts, Mean value: 1823
AsPc; 2nd week (recovery), 0 h
  cell counts: 1213 and 1770
AsPc; 2nd week (recovery), 48 h
  cell counts: 1210 and 1202
AsPc; 2nd week (recovery), 4 d
  cell counts, Mean value: 631
AsPc; 2nd week (recovery), 7 d
  cell counts: 73 and 85
  cell counts, Mean value: 86
SKBR3 [1]; 1st week (LC50), 0 h
  cell counts, Mean value: 2667
  cell counts: 2000 and 4000
SKBR3 [1]; 1st week (LC50), 24 h
  cell counts, Mean value: 9333
  cell counts: 6000 and 11000
SKBR3 [1]; 1st week (LC50), 48 h
  cell counts, Mean value: 4000
  cell counts: 4000
SKBR3 [1]; 1st week (LC50), 4 d
  cell counts, Mean value: 1000
  cell counts: 1000
SKBR3 [1]; 1st week (LC50), 7 d
  cell counts, Mean value: 3000
SKBR3 [1]; 2nd week (recovery), 0 h
  cell counts, Mean value: 70667
  cell counts: 60000 and 80000 and 72000
SKBR3 [1]; 2nd week (recovery), 24 h
  cell counts, Mean value: 49333
  cell counts: 32000 and 60000 and 56000
SKBR3 [1]; 2nd week (recovery), 48 h
  cell counts, Mean value: 44000
  cell counts: 56000 and 36000 and 40000
SKBR3 [1]; 2nd week (recovery), 4 d
  cell counts, Mean value: 17250
  cell counts: 15000 and 12500 and 22000
SKBR3 [1]; 2nd week (recovery), 7 d
  cell counts, Mean value: 10000
  cell counts: 10000 and 12000 and 8000
HeLa
  viability (%), Mean value: 75.4%
SKBR3 [2]; 24 h
  viability (%), Mean value: 70%
SKBR3 [2]; 48 h
  viability (%) calculated from the cell counts: 0%
  viability (%), Mean value: 17%
SKBR3 [2]; 4 d
  viability (%) calculated from the cell counts: 0%
  viability (%), Mean value: 33%
SKBR3 [2]; 7 d
  viability (%), Mean value: 50%
MDA-MB-231
  viability (%), Mean value: 44.2%
RKO; 0 h
  viability (%), Mean value: 40%
RKO; 24 h
  viability (%), Mean value: 43%
